{
  "source": "the NIST ThermoML archive (doi:10.1016/j.tca.2015.09.017)",
  "conditions": "101.33 kPa, Liquid, Photoacoustic measurements",
  "note": "± gives the expanded uncertainty stated by the source.",
  "data": [
    {"smiles": "OCCO", "note": "[1,2-ethanediol]", "values": [
      {"measurement": "thermal diffusivity", "setting": "298.15 K", "result": "9.84e-08 ± 3.9e-09", "unit": "m2/s"},
      {"measurement": "thermal diffusivity", "setting": "308.15 K", "result": "9.73e-08 ± 3.9e-09", "unit": "m2/s"},
      {"measurement": "thermal diffusivity", "setting": "318.15 K", "result": "9.68e-08 ± 3.9e-09", "unit": "m2/s"},
      {"measurement": "thermal diffusivity", "setting": "328.15 K", "result": "9.49e-08 ± 3.8e-09", "unit": "m2/s"},
      {"measurement": "thermal diffusivity", "setting": "338.15 K", "result": "9.42e-08 ± 3.8e-09", "unit": "m2/s"}
    ]},
    {"smiles": "O", "note": "[water]", "values": [
      {"measurement": "thermal diffusivity", "setting": "298.15 K", "result": "1.49e-07 ± 6e-09", "unit": "m2/s"},
      {"measurement": "thermal diffusivity", "setting": "308.15 K", "result": "1.53e-07 ± 6e-09", "unit": "m2/s"},
      {"measurement": "thermal diffusivity", "setting": "318.15 K", "result": "1.56e-07 ± 6e-09", "unit": "m2/s"},
      {"measurement": "thermal diffusivity", "setting": "328.15 K", "result": "1.59e-07 ± 6e-09", "unit": "m2/s"},
      {"measurement": "thermal diffusivity", "setting": "338.15 K", "result": "1.61e-07 ± 6e-09", "unit": "m2/s"}
    ]}
  ]
}
